The structures appear in SMILES notation. Entries after “also recorded” stand apart in the source; their conditions may differ.

One series has as its system HT22 neuronal cells. Put plainly: HT22 glutamate injury model, cell viability by XTT assay. The class given is cell-based. The settings on record: for neuroprotection in glutamate injury model: 1 μM LXB4, glutamate challenge. From the text: In order to confirm the bioactivity of the synthesized material, its neuroprotective effects were confirmed in a neuronal injury model. Recent clinical failures of a variety of neuroprotection trials have intensified interest in new treatment strategies. Evidence is accumulating that lipoxins and other lipid mediators can have an important impact on neuroinflammation and neuronal survival.[13,38] […] Yet the lack of efficient syntheses of LXB4 coupled with the expensive cost from commercial sources (USD$806/100 μg, Cayman Chemical)[36] have made this new mechanism of action challenging to modify and study. In this regard the presently described synthetic route towards LXB4, and analogues thereof, provide a benefit for improving production and/or reducing cost of production of LXB4 and analogues thereof. Therefore, the neuroprotective activity of newly synthesized LXB4 was compared it against the commercial source to confirm its activity.[36] For this assay, HT22 neuronal cells were pre-treated with LXB4 from both sources (commercial vs. in-house), followed by a glutamate challenge to induce excitotoxic cell death.[14] Cell viability was then measured using an XTT assay.
HT22 cells (SCC129, EMD Millipore) were grown on 100-mm tissue culture dishes (83.3902.300, Sarstedt) and maintained in high glucose DMEM (Sigma, D5796-500ML) supplemented with 10% fetal bovine serum (080-150, Wisent) and 1% Penstrep (15140122, Gibco) at 37° C. in a 5% CO2 atmosphere incubator (67/340,1045, CellXpert C170, Eppendorf). Cells used for experiments were maintained at a <80% confluency and <25 passages, and were dissociated using TrypIE (12604013, Gibco).
HT22 cells were seeded at 4×10^3 cells in 100 μL of the high glucose DMEM+10% fetal bovine serum+1% Penstrep media on replicate wells of 96-well plates (83.3924.300, Sarstedt) for 20 hours at 37° C. in a 5% CO2 atmosphere humidified incubator. Cells were then pretreated with 5 μL of the indicated LXB4 concentration, or vehicle, one hour prior to addition of 3 mM glutamate stressor. Cells were exposed for 13 hours, then evaluated for cell viability using an XTT assay, according to the manufacturer's instructions (11465015001, Roche). The resulting absorbance values were read in a BMG CLARIOstar microplate reader under 490 nm excitation following 2 hours of XTT incubation and analyzed using Graphpad Prism 9 for ANOVA analyses and curve fitting.

Series [1] is described as follows: Storage and handling stability of LXB4. It is filed as physicochemical. As for the experimental part:
Instability of LXB4 presented a substantial obstacle its synthesis and purification. […] Telescoping the final transformations from 27 to 2, preventing light exposure, and storing all crude intermediates in a methanol solution were required to obtain LXB4 of sufficient purity. LXB4 could be stored as a solution in methanol or ethanol at −20° C. for several weeks or at −80° C. for one to three months before substantial degradation was observed.
Dimethylethoxysilane (560 uL, 4.03 mmol, 8.0 equiv.) was added in one portion, followed by dropwise addition of Karstedt's catalyst (platinum(0)-1,3-divinyl-1,1,3,3,-tetramethyldisoloxane complex, 2% Pt) (115 μL, 0.010 mmol, 2 mol %). The round bottom flask was covered with foil to prevent UV exposure and the solution was stirred overnight at room temperature. […] The crude reaction mixture was filtered through a silica plug, which was washed with Et2O, and the collected filtrate was dried under vacuum to afford a yellow-brown oil. This oil was redissolved in anhydrous THF (4.4 mL) under argon. The solution was again wrapped in foil, and a solution of TBAF in THF (1.0 M, 4.0 mL, 8.0 equiv.) was added dropwise. The reaction was stirred at room temperature for 20 minutes. […] Another […] was added dropwise. […] The reaction was quenched by the addition of phosphate buffer (pH 7) and water and extracted with diethyl ether. The combined organic phase was dried over Na2SO4 and concentrated in vacuo. The crude oil was immediately redissolved in THF/H2O (3:1, 2.5 mL) and treated with LiOH (12.1 mg, 0.50 mmol, 1.0 equiv.) mmol. The resulting solution was stirred at room temperature in a round-bottom flask wrapped in aluminium foil until TLC indicated complete conversion. The reaction mixture was flash filtered through celite to remove any residual LiOH solid and washed with THF. The remaining solvent was removed in vacuo to afford a sticky yellow residue, which was immediately redissolved in MeOH. […] This material was purified by reverse phase HPLC (XBridge BEH OBD Prep column, 130A, 5 μM, 30 mm×150 mm) using a mobile phase of H2O+0.05% NH4OH (A) and acetonitrile+0.05% NH4OH (B) and a gradient elution of 97:3 A:B to 67:33 A:B. After lyophilization, we obtained 98.7 mg of LXB4 for a yield of 56% over three steps. LXB4 should be stored on dry ice until injected into the HPLC. In a solution in methanol at room temperature, formation of impurities which are extremely difficult to separate by HPLC occurred in 1-2 hours.

The next series deals with neuronal cell types. The settings on record: cited from earlier work.
The test system of series [2] is retinal ganglion cell death. The settings on record: acute and chronic models of retinal ganglion cell death, glaucoma; cited from earlier work.

With `CCCCC[C@H](O)[C@H](O)/C=C/C=C/C=C\C=C\[C@@H](O)CCCC(=O)O` [LXB4, (5S,6E,8Z,10E,12E,14R,15S)-5,14,15-trihydroxyicosa-6,8,10,12-tetraenoic acid], the “neuroprotection in glutamate injury model” value in the series with HT22 neuronal cells (n=8, p<0.05) is recorded as “significantly neuroprotective”; in the series with HT22 neuronal cells (n=8, p<0.05, listed as synthesized LXB4), “significant protection”. Besides, in the series on HT22 neuronal cells (Mus musculus, HT-22, glutamate injury, dose response curve, n=8), the 50% effective concentration (EC50) (in general, the midpoint of the concentration-response curve) worked out at 293 nM. The “stability to air and light” value in series [1] is “highly unstable”. Also, the “stability in HPLC buffer” value in series [1] (HPLC buffer) is “stable in HPLC buffer for several hours”. Moreover, the “stability stored as a solid” value in series [1] (crude or purified material, room temperature) is “rapid degradation”; in series [1] (low temperature (−20° C.)), “rapid degradation”. The “time to formation of impurities” value in series [1] (solution in methanol at room temperature) is 1 to 2 h. The “storage time before substantial degradation” value in series [1] (solution in methanol or ethanol at −20° C.) is listed as “several weeks”; in series [1] (solution in methanol or ethanol at −80° C.), “one to three”. Moreover, in the series with neuronal cell types (established neuronal injury model, also primary cortical, hippocampal and retinal ganglion cells), the “potency relative to LXA4” value is on record as 20 fold. Moreover, in the series on neuronal cell types (variety of neuronal cell types, acute and chronic injury models of glaucoma), the “potency and efficacy in direct neuroprotection compared with LXA4” value was “significantly more potent and efficacious than LXA4”. Also, the efficacy in vivo entry in series [2] is “efficacy in vivo”.

Take `CCCCC[C@H](O)[C@H](O)/C=C/C=C/C=C\C=C\[C@@H](O)CCCC(=O)O` [commercial LXB4, reference compound]: the “neuroprotection in glutamate injury model” value with HT22 neuronal cells (n=8, p<0.05) is “significantly neuroprotective; also recorded: significant protection”.
